# Data taken from patent US5610171A, “Inhibition of metastasis in patients having cancer with pyridyloxazole-2-ones” (Merrell Pharmaceuticals Inc., priority 1995, dated 1997).
# “Also recorded” adds a separate entry of the source. Like-named read-outs stand apart in the source and are kept apart here.
# Columns and labels:
# B16F1 cells [1] = assay: Colony forming (clonogenic) assay of B16F1 cells; assay type: cell-based, murine; settings: 24 hours
# Method: One hundred viable cells, as determined by trypan blue exclusion, were plated per 35 mm dish in MEM and incubated for 24 hours at 37° C. Next, 4-propyl-5(4-pyridinyl)-2(3H)-oxazolone was added and incubation continued for an additional 24 hours, after which the dishes were washed twice with Hank's Balanced Salt Solution (HBSS) and replenished with MEM. Ten days later, colonies with a diameter of 2 mm or greater were counted.
# B16F1 cells (10^2) were plated and incubated for 24
# hours at 37° C. Next, 4-propyl-5(4-pyridinyl)-2(3H)-
# oxazolone (compound 1) was added and incubation continued
# for an additional 24 hours at which time the drug was
# removed. Ten days later, colonies greater than 2 mm in […]
# B16F1 cells [2] = assay: Experimental lung metastasis assay (B16F1 cells treated in culture, then injected intravenously into C57BL/6 mice); assay type: in vivo, murine (C57BL/6 mice); settings: for % Control (number of nodules) / Number of nodules per set of lungs, Mean +/- SE: 24 hours; for IC50: cells exposed to drugs for 24 hours, nodules counted three weeks later, read-out: B16 Metastasis IC50
# Method: Experimental Metastasis Assay
# Sub-confluent B16F1 cells were harvested by washing with HBSS followed by trypsinization for 1 minute. The cells were sedimented by centrifugation (250 g, 5 minutes) and washed twice with HBSS. Viable cells were counted after dilution with trypan blue. A single-cell suspension of 10^5 cells in 0.2 ml HBSS was injected intravenously into 16-18 C57BL/6 mice via the tail vein. Three weeks later, the number of metastatic foci in the lung were counted.
# cytosolic PKC [3] = assay: Inhibition of B16F1 cytosolic PKC activity; assay type: biochemical, murine; settings: B16F1 cytosol fraction
# Method: (§1) Protein Kinase C Preparation
# (§2) Cytostolic and membrane-associated PKC was prepared as described in Thomas, T. P., Gopalakrishna, R. and Anderson, W. B. Hormone- and tumor promoter-induced activation of membrane association of protein kinase C in intact cells, Methodsin Enzymology, 141: 399-411, 1987. Sub-confluent B16F1 cultures (4×10^7 cells total) were washed twice with phosphate buffered saline (PBS), pH 7.2 and then twice with buffer A (20 mM Tris, pH 7.5, 2 mM EDTA, 0.5 mM EGTA, […], 2 mM phenylmethylsulfonyl fluoride (PMSF), and 2 μg/ml leupeptin). Cells were scraped from the plates in buffer A, homogenized (40 strokes) and sedimented by centrifugation for 1 hour at 100,000 g. The cytosol was stored on ice while the particulate fraction was washed with buffer B (20 mM Tris, pH 7.2, 2 mM EDTA, 0.5 mM EGTA, and 2 mM (PMSF). The membranes were resuspended with buffer B and homogenized with 10 strokes. Nonidet P-40 (1% final concentration) was added and the mixture was incubated for 30 minutes at 4° C. in a rotating mixer. Nonsolubilized material was removed by centrifugation for 10 minutes at 1400 g. Cytostolic and membrane-bound PKC was partially purified by chromatography over 1 ml columns of DE-52 (Whatman) equilibrated with buffer B. The enzyme was applied to the column and washed with 2×3 ml buffer B. Elution of PKC was then effected by the addition of 2 ml buffer B containing 100 mM NaCl.
# (§3) PKC was quantitated as described in Thomas et al., ibid. The assay contained 20 mM Tris (pH 7.5), 0.75 mM CaCl, 10 mM magnesium acetate, […] histone III-S, 0.25 μg/ml leupeptin, 100 μM [gamma-^32 p]-ATP (120 cpm/pmol), 0.96 μg/ml phosphatidylserine, and 0.0064 μg/ml 1,2-diolein in a total assay volume of 250 μl. Blanks contained no calcium or phospholipids. Incubation was for 5 minutes at 30° C. at which point the reaction was terminated by the addition of 1 ml 25% trichloroacetic acid (TCA). Samples were applied to Whatman GF/B filters, the tube rinsed twice with 5% TCA and the filter then washed 5 times with 5% TCA.
# ^a Subconfluent B16F1 cells were harvested and cytosol and membrane
# fractions prepared as described in Materials and Methods. PKC activity wa
# then measured in the presence of the drugs listed.
# membrane-associated PKC [4] = assay: Inhibition of B16F1 membrane-associated PKC activity; assay type: biochemical, murine; settings: B16F1 membrane fraction
# Method: as §1, §2, §3
# cytosolic PKC [5] = assay: PKC activity in cytosol of pretreated B16F1 cells; assay type: cell-based, murine; settings: 24 hours
# Method: as §1, §2
# as §3, with “Samples were applied to Whatman GF/B filters, the tube rinsed twice with 5% TCA and the filter then washed 5 times with 5% TCA.” left out
# (§4) then prepared and its activity was measured as described in […]
# membrane-associated PKC [6] = assay: PKC activity in membranes of pretreated B16F1 cells; assay type: cell-based, murine; settings: 24 hours
# Method: as §1, §2, §3
# B16F1 cells were incubated with 4-propyl-5(4-
# pyridinyl)-2(3H)-oxazolone for 24 hours at 37° C. PKC was
# as §4
# fibrinogen = assay: Adhesion of B16F1 cells to fibrinogen; assay type: cell-based; settings: 24 hours
# Method: (§5) Adhesion of B16F1 Cells to Basement Membrane Proteins
# (§6) Adhesion proteins (2 μg/well) were coated onto Immulon I Removawells from Dynatech and incubated for 1 hour at 37° C. The wells were then blocked for 1 hour with 400 μl PBS, pH 7.2 containing 1% bovine serum albumin (BSA) at 37° C. Prior to addition of the cell suspension, the blocking solution was aspirated.
# (§7) Sub-confluent cells were washed twice with HBSS and removed form flasks by incubation for 10 minutes at 37° C. with PBS (pH 7.2), 2 mM EDTA, and 1% BSA. The cells were washed twice with MEM containing 20 mM HEPES and 0.1% BSA and resuspended in the same medium to give a cell density of […].
# (§8) Cells were added to wells in 50 μl (5×10^4 cells) and incubated at 37° C. The wells were aspirated and washed three times with 400 μl PBS (pH 7.2) containing 0.1% BSA. Wells were detached and counted in 5 ml Beckman Ready Protein. Blanks were not coated with protein but were blocked with BSA as described above.
# laminin = assay: Adhesion of B16F1 cells to laminin; assay type: cell-based; settings: 24 hours
# Method: as §5, §6, §7, §8
# fibronection = assay: Adhesion of B16F1 cells to fibronectin; assay type: cell-based; settings: 24 hours
# Method: as §5, §6, §7, §8
# [7] = tested on: extracellular matrix/basement membrane proteins; assay: Adhesion of B16F1 cells to extracellular matrix/basement membrane proteins; assay type: cell-based, murine
# Method: as §5, §6, §7, §8
# [8] = tested on: B16F1 murine melanoma cells; assay: Viability of treated B16F1 cells by [3H]-thymidine incorporation; assay type: cell-based; settings: 24 hours
compound,measurement,setting,value
"CCCc1[nH]c(=O)oc1-c1ccncc1 [Compound 1, 4-propyl-5(4-pyridinyl)-2(3H)-oxazolone]","Colonies per dish, Mean +/- SE",B16F1 cells [1]; 10 μM,27 +/- 2 colonies per dish
same,"Colonies per dish, Mean +/- SE",B16F1 cells [1]; 20 μM,34 +/- 1 colonies per dish
same,"Colonies per dish, Mean +/- SE",B16F1 cells [1]; 50 μM,29 +/- 1 colonies per dish
same,viability of treated cells (clonogenic assay),B16F1 cells [1],equivalent to untreated cells
same,% Control (number of nodules),B16F1 cells [2]; 1 μM,67%
same,"Number of nodules per set of lungs, Mean +/- SE",B16F1 cells [2]; 1 μM,12 +/- 2.8 nodules per set of lungs
same,% Control (number of nodules),B16F1 cells [2]; 5 μM,78%
same,"Number of nodules per set of lungs, Mean +/- SE",B16F1 cells [2]; 5 μM,14 +/- 3.3 nodules per set of lungs
same,% Control (number of nodules),B16F1 cells [2]; 10 μM,43%
same,"Number of nodules per set of lungs, Mean +/- SE",B16F1 cells [2]; 10 μM,7.8 +/- 2.1 nodules per set of lungs
same,% Control (number of nodules),B16F1 cells [2]; 20 μM,30%
same,"Number of nodules per set of lungs, Mean +/- SE",B16F1 cells [2]; 20 μM,5.4 +/- 1.1 nodules per set of lungs
same,% Control (number of nodules),B16F1 cells [2]; 50 μM,12%
same,"Number of nodules per set of lungs, Mean +/- SE",B16F1 cells [2]; 50 μM,2 +/- 0.6 nodules per set of lungs
same,inhibition of lung metastasis,"B16F1 cells [2]; 24 hours in culture, then intravenous injection into C57BL/6 mice",90%
same,IC50,"B16F1 cells [2]; Mus musculus, B16-F1, iv",6.8 µM
same,number of lung metastases,"B16F1 cells [2]; cells exposed in vitro, then injected into mice",diminished the number of lung metastases
same,IC50,B16F1 cells [2],7 µM
same,incubation time for 50% of maximum inhibition of metastasis,B16F1 cells [2]; time dependence of incubation,≤ 8 h
same,potency for inhibition of metastasis relative to H-7,B16F1 cells [2]; versus H-7,more potent than H-7
same,potency for inhibition of metastasis relative to staurosporine,B16F1 cells [2]; versus staurosporine,significantly less potent than staurosporine
same,IC50,cytosolic PKC [3],54 µM
same,IC50,membrane-associated PKC [4],13 µM
same,"PKC Activity, cytosol",cytosolic PKC [5]; 5 μM,7305 pmol per min per mg protein
same,"PKC Activity, cytosol",cytosolic PKC [5]; 25 μM,2485 pmol per min per mg protein
same,"PKC Activity, cytosol",cytosolic PKC [5]; 50 μM,3658 pmol per min per mg protein
same,PKC Activity Ratio membrane/cytosol,membrane-associated PKC [6]; 5 μM,0.29
same,"PKC Activity, membrane",membrane-associated PKC [6]; 5 μM,2151 pmol per min per mg protein
same,PKC Activity Ratio membrane/cytosol,membrane-associated PKC [6]; 25 μM,0.61
same,"PKC Activity, membrane",membrane-associated PKC [6]; 25 μM,1511 pmol per min per mg protein
same,PKC Activity Ratio membrane/cytosol,membrane-associated PKC [6]; 50 μM,0.27
same,"PKC Activity, membrane",membrane-associated PKC [6]; 50 μM,1000 pmol per min per mg protein
same,adhesion to fibrinogen,fibrinogen,most sensitive to inhibition
same,adherence to laminin,laminin,inhibited minimally or not at all
same,adherence to fibronection,fibronection,inhibited minimally or not at all
same,attachment to extracellular matrix/basement membrane proteins,[7]; 24 hours,decreased adhesion to some basement membrane proteins; also recorded: less adherent than untreated cells
same,potency for inhibition of adhesion relative to H-7,[7]; versus H-7,more potent than H-7
same,potency for inhibition of adhesion relative to staurosporine,[7]; versus staurosporine,significantly less potent than staurosporine
same,viability of treated cells ([3H]-thymidine incorporation),[8],equivalent to untreated cells
